Laboratory results: publication PMC7747971 (Plant Communications, 2020)

Assays:
AtTPS19 = AtTPS19 (Arabidopsis thaliana, UniProt Q9LUE0); type: cell-based
AtTPS22 = biological target: T1, AtTPS22 (Arabidopsis thaliana, UniProt Q9LQ27); type: cell-based
T1 sequence (Q9LQ27 57-603): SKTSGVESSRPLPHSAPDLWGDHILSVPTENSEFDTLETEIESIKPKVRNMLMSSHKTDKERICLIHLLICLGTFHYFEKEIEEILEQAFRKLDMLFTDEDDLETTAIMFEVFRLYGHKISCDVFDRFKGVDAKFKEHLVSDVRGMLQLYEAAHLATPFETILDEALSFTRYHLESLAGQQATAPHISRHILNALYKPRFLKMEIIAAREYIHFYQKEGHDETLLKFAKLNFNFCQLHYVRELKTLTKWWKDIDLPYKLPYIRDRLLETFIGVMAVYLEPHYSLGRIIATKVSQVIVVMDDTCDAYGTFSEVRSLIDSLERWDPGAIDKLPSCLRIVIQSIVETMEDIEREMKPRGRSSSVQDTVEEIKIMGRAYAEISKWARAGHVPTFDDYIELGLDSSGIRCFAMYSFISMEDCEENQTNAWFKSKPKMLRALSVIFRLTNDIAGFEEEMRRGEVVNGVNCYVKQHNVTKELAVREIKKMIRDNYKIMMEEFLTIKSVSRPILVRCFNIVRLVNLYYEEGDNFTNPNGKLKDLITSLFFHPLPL

AtTPS06 = biological target: T2, AtTPS06 (Arabidopsis thaliana, UniProt Q84UU9); type: cell-based
T2 sequence (Q84UU9 53-611): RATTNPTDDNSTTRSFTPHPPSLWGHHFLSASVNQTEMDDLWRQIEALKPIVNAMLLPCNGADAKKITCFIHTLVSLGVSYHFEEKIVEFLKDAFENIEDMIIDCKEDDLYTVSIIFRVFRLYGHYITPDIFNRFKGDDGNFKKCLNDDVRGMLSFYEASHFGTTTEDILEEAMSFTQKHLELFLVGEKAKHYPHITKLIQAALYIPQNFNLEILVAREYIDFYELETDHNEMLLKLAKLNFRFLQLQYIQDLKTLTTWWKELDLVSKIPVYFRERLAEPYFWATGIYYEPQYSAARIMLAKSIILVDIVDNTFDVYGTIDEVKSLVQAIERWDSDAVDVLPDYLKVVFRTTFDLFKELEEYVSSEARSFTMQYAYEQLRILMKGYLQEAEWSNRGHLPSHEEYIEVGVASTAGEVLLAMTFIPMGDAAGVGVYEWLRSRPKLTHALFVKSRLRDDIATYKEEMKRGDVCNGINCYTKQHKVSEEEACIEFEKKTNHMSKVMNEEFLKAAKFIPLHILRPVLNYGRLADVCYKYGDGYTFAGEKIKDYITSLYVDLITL

AtTPS29 = AtTPS29 (Arabidopsis thaliana, UniProt Q9C6W6); type: cell-based
AtTPS18 = AtTPS18 (Arabidopsis thaliana, UniProt Q9LUE2); test: X-ray crystal structure; type: binding; conditions: AtTPS18-PP complex
Sequence of AtTPS18 (Q9LUE2 52-605): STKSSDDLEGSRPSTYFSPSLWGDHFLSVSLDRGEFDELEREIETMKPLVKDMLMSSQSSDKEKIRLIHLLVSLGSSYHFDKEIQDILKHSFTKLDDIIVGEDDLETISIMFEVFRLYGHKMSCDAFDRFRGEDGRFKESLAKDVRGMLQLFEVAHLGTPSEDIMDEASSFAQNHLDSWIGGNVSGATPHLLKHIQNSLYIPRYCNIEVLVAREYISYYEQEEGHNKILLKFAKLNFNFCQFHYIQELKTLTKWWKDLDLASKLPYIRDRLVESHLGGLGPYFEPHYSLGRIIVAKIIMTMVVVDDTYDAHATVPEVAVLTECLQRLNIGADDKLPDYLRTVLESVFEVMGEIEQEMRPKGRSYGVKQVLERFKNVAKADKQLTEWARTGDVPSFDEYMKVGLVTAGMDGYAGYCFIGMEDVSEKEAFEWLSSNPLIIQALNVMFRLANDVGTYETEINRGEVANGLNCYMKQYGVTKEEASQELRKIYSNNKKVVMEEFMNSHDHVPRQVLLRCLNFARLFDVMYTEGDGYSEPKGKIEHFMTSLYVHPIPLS

Sequence of AtTPS19 (Q9LUE0 49-602): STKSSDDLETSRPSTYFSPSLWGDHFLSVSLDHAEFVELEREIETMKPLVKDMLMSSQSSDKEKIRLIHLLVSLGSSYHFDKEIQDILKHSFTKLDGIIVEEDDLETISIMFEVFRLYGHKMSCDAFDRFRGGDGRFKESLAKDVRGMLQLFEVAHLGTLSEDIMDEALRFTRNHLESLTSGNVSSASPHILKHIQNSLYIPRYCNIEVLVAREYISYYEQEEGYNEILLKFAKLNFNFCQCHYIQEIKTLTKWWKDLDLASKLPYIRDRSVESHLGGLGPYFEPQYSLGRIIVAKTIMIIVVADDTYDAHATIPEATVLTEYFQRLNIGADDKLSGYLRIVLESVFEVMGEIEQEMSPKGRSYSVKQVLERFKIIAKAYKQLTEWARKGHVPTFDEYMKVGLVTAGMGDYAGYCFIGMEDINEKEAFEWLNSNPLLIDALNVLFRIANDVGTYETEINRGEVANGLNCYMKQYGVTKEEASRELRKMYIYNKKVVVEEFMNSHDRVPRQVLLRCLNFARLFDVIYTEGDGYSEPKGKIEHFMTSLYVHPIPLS
Sequence of AtTPS29 (Q9C6W6 51-607): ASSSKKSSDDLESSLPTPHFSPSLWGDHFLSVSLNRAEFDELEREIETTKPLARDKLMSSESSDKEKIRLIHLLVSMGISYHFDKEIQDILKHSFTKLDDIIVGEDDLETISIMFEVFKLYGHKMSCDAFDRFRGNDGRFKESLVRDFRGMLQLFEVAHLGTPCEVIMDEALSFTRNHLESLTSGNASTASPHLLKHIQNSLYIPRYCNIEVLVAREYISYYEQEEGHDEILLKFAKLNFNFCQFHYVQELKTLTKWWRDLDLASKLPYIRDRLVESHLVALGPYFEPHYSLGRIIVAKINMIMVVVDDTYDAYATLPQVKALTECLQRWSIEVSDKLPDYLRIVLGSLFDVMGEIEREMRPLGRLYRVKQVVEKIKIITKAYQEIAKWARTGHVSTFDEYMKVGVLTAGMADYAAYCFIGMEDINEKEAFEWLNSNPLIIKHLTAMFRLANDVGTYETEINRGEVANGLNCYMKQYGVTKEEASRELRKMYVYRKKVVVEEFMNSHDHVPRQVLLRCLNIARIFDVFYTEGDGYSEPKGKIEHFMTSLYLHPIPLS

| Structure (SMILES) | GC-MS of products in E. coli (AtTPS19) | GC-MS of products in E. coli (AtTPS22) | GC-MS of products in E. coli (AtTPS06) | GC-MS of products in E. coli (AtTPS29) | X-ray crystal structure (AtTPS18) |
| --- | --- | --- | --- | --- | --- |
| CC(C)=CCC/C(C)=C/CC/C(C)=C/CC/C(C)=C/CC/C(C)=C/COP(=O)(O)OP(=O)(O)O [GFPP] | C8 (the main product of AtTPS19) | sesterterpenes ... were detected in transgenic E. coli strains harboring AtTPS06, AtTPS22, or AtTPS29 | AtTPS06, a multi-product enzyme, produces more than ten different sesterterpenes from GFPP | sesterterpenes ... were detected in transgenic E. coli strains harboring AtTPS06, AtTPS22, or AtTPS29 | – |
| O=P(O)(O)OP(=O)(O)O [PP] | – | – | – | – | AtTPS18-PP (PDB code 7BZB) |
